Calls of active or inactive are those of the source. The calls are words filed in the database; no cut-off is given here.

The results in this text go back to ChEMBL document CHEMBL6096639, “Discovery of the first selective and potent PROTAC degrader for the pseudokinase TRIB2” (Eur J Med Chem, 2025).

Assay [1] has as its target T1, Protein cereblon/Tribbles homolog 2 (Homo sapiens, UniProt Q96SW2+Q92519). Description: PROTAC activity at CRBN/TRIB2 in human PC-3 cells assessed as induction of TRIB2 degradation by measuring maximal efficacy at 100 nM measured after 24 hrs by immunoblot analysis relative to control. The class given is cell-based.
Target sequence in this assay (Q96SW2 whole entry, looked up, one chain of several): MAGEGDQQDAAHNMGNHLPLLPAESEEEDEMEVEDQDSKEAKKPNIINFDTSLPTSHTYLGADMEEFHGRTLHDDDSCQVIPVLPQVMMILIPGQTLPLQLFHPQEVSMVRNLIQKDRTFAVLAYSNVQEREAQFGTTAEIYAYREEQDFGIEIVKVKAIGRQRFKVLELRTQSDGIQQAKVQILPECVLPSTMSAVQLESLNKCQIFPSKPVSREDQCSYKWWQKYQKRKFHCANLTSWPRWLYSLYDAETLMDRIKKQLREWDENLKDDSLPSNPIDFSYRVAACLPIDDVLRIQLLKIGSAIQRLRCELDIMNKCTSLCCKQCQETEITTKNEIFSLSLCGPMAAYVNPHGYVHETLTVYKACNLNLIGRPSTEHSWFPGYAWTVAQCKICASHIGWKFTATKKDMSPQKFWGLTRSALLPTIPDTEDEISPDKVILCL
Assay [2] deals with T1, Protein cereblon/Tribbles homolog 2. Kind of assay: PROTAC activity at CRBN/TRIB2 in human PC-3 cells assessed as induction of TRIB2 degradation by measuring maximal efficacy at 1 nM measured after 24 hrs by immunoblot analysis relative to control. The class given is cell-based. In general terms: A western blot detects proteins with antibodies after separation by electrophoresis.
Target sequence in this assay (Q96SW2 whole entry, looked up, one chain of several): as above

Assay [3] is described as follows: Antiproliferative activity against human LTL-331R-CL cells assessed as cell viability for 5 days by CTG assay. The class given is functional, cell-based. As to conditions: 120 h.
The test system of assay [4] is PC-3. Kind of assay: Antiproliferative activity against human PC-3 cells assessed as cell viability for 5 days by CTG assay. The class given is functional, cell-based. Particulars: PC-3, 120 h.
Assay [5] relates to HepG2. Description: Antiproliferative activity against human HepG2 cells assessed as cell viability. The class given is functional.
For assay [6], the target named is T2, Tribbles homolog 2 (Homo sapiens, UniProt Q92519).
T2 sequence (Q92519 whole entry): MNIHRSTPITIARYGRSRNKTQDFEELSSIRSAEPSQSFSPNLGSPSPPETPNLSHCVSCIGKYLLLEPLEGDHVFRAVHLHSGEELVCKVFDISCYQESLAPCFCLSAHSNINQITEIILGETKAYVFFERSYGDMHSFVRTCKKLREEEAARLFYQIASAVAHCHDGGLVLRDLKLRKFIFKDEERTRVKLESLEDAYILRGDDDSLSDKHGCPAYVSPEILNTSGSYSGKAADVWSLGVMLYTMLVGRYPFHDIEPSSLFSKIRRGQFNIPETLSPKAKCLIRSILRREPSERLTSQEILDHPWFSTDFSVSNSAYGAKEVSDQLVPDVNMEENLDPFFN
Kind of assay: Inhibition of TRIB2 (unknown origin) assessed as reduction in ATP binding affinity incubated for 120 mins in presence of Mg/ATP by radiometric kinase assay.

The test system of assay [7] is A549. Kind of assay: Antiproliferative activity against human A549 cells assessed as cell viability. It counts as functional.
Assay [8] addresses T3, Tribbles homolog 2 (Homo sapiens) (UniProt Q92519).
T3 sequence (whole entry): T2 sequence (Q92519 whole entry)
Kind of assay: Induction of thermal stabilization of TRIB2 in human PC-3 cells […] at 2 uM preincubated for 3 hrs followed by compound washout and incubated under 45 to 50 degreeC for 3 mins by CETSA based immunoblotting analysis. The class given is cell-based.

The target in assay [9] is T1, Protein cereblon/Tribbles homolog 2. Kind of assay: PROTAC activity at CRBN/TRIB2 in human PC-3 cells assessed as induction of TRIB2 degradation at 500 nM in presence of 1 uM bortezomib proteasome inhibitor pretreatment for 16 hrs by Western blot analysis. The class given is cell-based.
Target sequence in this assay (Q96SW2 whole entry, looked up, one chain of several): as the sequence (Q96SW2 whole entry, looked up, one chain of several) above
The target is the same in assay [10]. Description: PROTAC activity at CNRB/TRIB2 in human PC-3 cells assessed as induction of TRIB2 degradation at 0.5 uM pretreated with pomalidomide followed by compound addition and measured after 16 hrs by immunoblotting assay. It counts as cell-based.
Target sequence in this assay (Q96SW2 whole entry, looked up, one chain of several): as the sequence (Q96SW2 whole entry, looked up, one chain of several) above
In assay [11] the target is T4, von Hippel-Lindau disease tumor suppressor/Tribbles homolog 2 (Homo sapiens) (UniProt P40337+Q92519). Description: PROTAC activity at VHL/TRIB2 in human PC-3 cells assessed as induction of TRIB2 downregulation at 1000 nM for 24 hrs by immunoblotting analysis. It counts as cell-based.
Assay [12] concerns the target T4, von Hippel-Lindau disease tumor suppressor/Tribbles homolog 2 (Homo sapiens). Description: PROTAC activity at VHL/TRIB2 in human PC-3 cells assessed as induction of TRIB2 degradation at 100 nM for 24 hrs by immunoblotting analysis. It counts as cell-based.
For assay [13], the target named is T1, Protein cereblon/Tribbles homolog 2. Kind of assay: PROTAC activity at CNRB/TRIB2 in human LTL-331R-CL cells assessed as induction of TRIB2 degradation at 1 uM for 4 hrs by comprehensive proteomic analysis using a tandem mass tag (TMT) labeled mass spectrometry. It counts as cell-based.
Target sequence in this assay (Q96SW2 whole entry, looked up, one chain of several): as the sequence (Q96SW2 whole entry, looked up, one chain of several) above
The target is the same in assay [14]. Description: PROTAC activity at CRBN/TRIB2 in human LTL-331R-CL cells assessed as induction of TRIB2 degradation at 1 uM by immunoblotting analysis. The class given is cell-based.
Target sequence in this assay (Q96SW2 whole entry, looked up, one chain of several): as the sequence (Q96SW2 whole entry, looked up, one chain of several) above
For assay [15] the target is unchanged. Kind of assay: PROTAC activity at CNRB/TRIB2 in human LTL-331R-CL cells assessed as induction of TRIB2 degradation at 1 uM for 4 hrs by immunoblotting assay. The class given is cell-based.
The test system of assay [16] is PC-3. Kind of assay: Antiproliferative activity against human PC-3 cells assessed as cell viability at 1 uM by CTG assay. It counts as functional, cell-based.
Assay [17] concerns LTL-331R-CL. Description: Antiproliferative activity against human LTL-331R-CL cells assessed as cell viability at 1 uM by CTG assay. It counts as functional, cell-based.
Assay [18] addresses T1, Protein cereblon/Tribbles homolog 2. Description: PROTAC activity at CRBN/TRIB2 in human PC-3 cells assessed as induction of TRIB2 degradation for 24 hrs by immunoblot analysis. It counts as cell-based.
Assay [19] shares this target. Kind of assay: PROTAC activity at CRBN/TRIB2 in human PC-3 cells assessed as half maximal degradation by measuring half life at 500 nM by immunoblotting analysis. It counts as cell-based.
For assay [20] the target is unchanged. Description: PROTAC activity at CRBN/TRIB2 in human NCI-H660 cells assessed as induction of TRIB2 degradation at 1 uM by immunoblotting analysis. The class given is cell-based.

T4 sequence (P40337 whole entry, looked up, one chain of several): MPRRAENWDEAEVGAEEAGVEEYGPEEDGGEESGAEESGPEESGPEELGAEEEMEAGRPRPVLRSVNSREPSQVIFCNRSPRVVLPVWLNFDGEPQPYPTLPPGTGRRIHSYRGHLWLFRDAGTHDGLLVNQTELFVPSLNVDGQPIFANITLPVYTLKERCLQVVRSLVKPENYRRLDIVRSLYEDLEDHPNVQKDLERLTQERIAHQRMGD

As for `O=C1CCC(N2C(=O)c3ccc(NCCCCCC(=O)N4CCc5ccc(NC(=O)c6n[nH]c7ccc(-c8cccnc8F)cc67)cc5C4)cc3C2=O)C(=O)N1` (stereo unspecified), the Emax (as a rule, the size of the effect at its maximum, as opposed to the concentration needed) was 85.6% in assay [1] and 24.5% in [2].

Regarding `CN1C(=O)CCC(N2C(=O)c3ccc(NCCCCCCCCCC(=O)N4CCc5ccc(NC(=O)c6n[nH]c7ccc(-c8cccnc8F)cc67)cc5C4)cc3C2=O)C1=O` (stereo unspecified), the IC50 (commonly the concentration needed to halve the response being measured) in [3] was more than 30000 nM; in [4], more than 5000 nM.

Take `O=C1CCC(N2C(=O)c3ccc(NCCCCCCCC(=O)N4CCc5ccc(NC(=O)c6n[nH]c7ccc(-c8cccnc8F)cc67)cc5C4)cc3C2=O)C(=O)N1` (stereo unspecified): the Emax in assay [1] came out at 58.2%.

As for `Nc1cccc2c1C(=O)N(C1CCC(=O)NC1=O)C2=O` (stereo unspecified) [POMALIDOMIDE], the results for the IC50 in assay [3] and in [4] were more than 30000 nM and more than 5000 nM, respectively.

For the compound `O=C(Nc1ccc2c(c1)CNCC2)c1n[nH]c2ccc(-c3cccnc3F)cc12`, the IC50 in assay [3] was found to be 868 nM; in [6], 65.2 nM; in [4], 802 nM. Besides, the Activity turned out to be 10% in [5] and 12% in assay [7]. Further, in assay [8], the result was Active.

With `O=C1CCC(N2C(=O)c3ccc(NCCCC(=O)N4CCc5ccc(NC(=O)c6n[nH]c7ccc(-c8cccnc8F)cc67)cc5C4)cc3C2=O)C(=O)N1` (stereo unspecified), the Emax in assay [1] came out at 84.1%.

As for `O=C1CCC(N2C(=O)c3ccc(NCCCCCCCCCC(=O)N4CCc5ccc(NC(=O)c6n[nH]c7ccc(-c8cccnc8F)cc67)cc5C4)cc3C2=O)C(=O)N1` (stereo unspecified), the results for the IC50 in assay [3] and in assay [4] were 30.4 nM and 3.9 nM, respectively. The outcome in [9] and in [10] was inactive. The Emax in assay [1] stood at 92%. The Activity result in assay [11] is “Active; Mild Trib2 Degradation Observed”; in assay [12], 100%; in assay [18], “Dose-dependent-effect”; in assay [20] it was “Time-dependent-effect”. In addition, the outcome in assay [13], in assay [14], in assay [15], in assay [16], in [17] and in [8] was Active. For the same compound, in assay [18], the DC50 – broadly, the concentration giving 50% degradation – is 16.8 nM. Moreover, the T1/2 in assay [19] was more than 5.5 h.
